Tests used:
[1] = molecular target: T1, recombinant human mGluR4a receptors (Homo sapiens, UniProt Q14833); experiment: mGluR4 assay on HEK-expressing human mGluR4 (fluorescent cell based Ca2+ mobilization assay, FLIPR); settings: HEK-293 cells expressing hmGluR4; enhancement of EC25 glutamate response; mean of at least three independent experiments in duplicate; read-out: Ca^2+ Flux (mean EC50)
T1 construct: expressed in transfected cells
Source text: mGluR4 Assay on HEK-Expressing Human mGluR4
The compounds of the present invention are positive allosteric modulators of mGluR4 receptor. Their activity was examined on recombinant human mGluR4a receptors by detecting changes in intracellular Ca^2+ concentration, using the fluorescent Ca^2+-sensitive dye Fluo4-(AM) and a Fluorometric Imaging Plate Reader (FLIPR, Molecular Devices, Sunnyvale, Calif.).
The cDNA encoding the human metabotropic glutamate receptor (hmGluR4), (accession number NM_000841.1, NCBI Nucleotide database browser), was subcloned into an expression vector containing also the Hygromycin resistance gene. In parallel, the cDNA encoding a G protein allowing redirection of the activation signal to intracellular calcium flux was subcloned into a different expression vector containing also the Puromycin resistance gene. Transfection of both these vectors into HEK293 cells with PolyFect reagent (Qiagen) according to supplier's protocol, and hygromycin and puromycin treatment allowed selection of antibiotic resistant cells which had integrated stably one or more copies of the plasmids. Positive cellular clones expressing hmGluR4 were identified in a functional assay measuring changes in calcium flux in response to glutamate or selective known mGluR4 orthosteric agonists and antagonists. HEK-293 cells expressing hmGluR4 were maintained in media containing DMEM, dialyzed Fetal Calf Serum (10%), Glutamax™ (2 mM), Penicillin (100 units/mL), Streptomycin (100 μg/mL), Geneticin (100 μg/mL) and Hygromycin-B (40 μg/mL) and Puromycin (1 μg/mL) at 37° C./5% CO2.
Human mGluR4 HEK-293 cells were plated out 24 hours prior to FLIPR^384 assay in black-walled, clear-bottomed, poly-L-ornithine-coated 384-well plates at a density of 25,000 cells/well in a glutamine/glutamate free DMEM medium containing foetal bovine serum (10%), penicillin (100 units/mL) and streptomycin (100 μg/mL) at 37° C./5% CO2.
On the day of the assay, the medium was aspirated and the cells were loaded with a 3 μM solution of Fluo4-AM (LuBioScience, Lucerne, Switzerland) in 0.03% pluronic acid. After 1 hour at 37° C./5% CO2, the non incorporated dye was removed by washing cell plate with the assay buffer and the cells were left in the dark at it for six hours before testing. All assays were performed in a pH 7.4 buffered-solution containing 20 mM HEPES, 143 mM NaCl, 6 mM KCl, 1 mM MgSO4, 1 mM CaCl2, 0.125 mM sulfapyrazone and 0.1% glucose.
After 10 s of basal fluorescence recording, various concentrations of the compounds of the invention were added to the cells. Changes in fluorescence levels were first monitored for 180 s in order to detect any agonist activity of the compounds. Then the cells were stimulated by an EC25 glutamate concentration for an additional 110 s in order to measure enhancing activities of the compounds of the invention. EC25 glutamate concentration is the concentration giving 25% of the maximal glutamate response.
The concentration-response curves of representative compounds of the present invention were generated using the Prism GraphPad software (Graph Pad Inc, San Diego, USA). The curves were fitted to a four-parameter logistic equation:
(Y=Bottom+(Top−Bottom)/(1+10̂((Log EC50-X)*Hill Slope)
allowing the determination of EC50 values.
The Table 3 below represents the mean EC50 obtained from at least three independent experiments of selected molecules performed in duplicate.

T1 sequence (Q14833 33-912): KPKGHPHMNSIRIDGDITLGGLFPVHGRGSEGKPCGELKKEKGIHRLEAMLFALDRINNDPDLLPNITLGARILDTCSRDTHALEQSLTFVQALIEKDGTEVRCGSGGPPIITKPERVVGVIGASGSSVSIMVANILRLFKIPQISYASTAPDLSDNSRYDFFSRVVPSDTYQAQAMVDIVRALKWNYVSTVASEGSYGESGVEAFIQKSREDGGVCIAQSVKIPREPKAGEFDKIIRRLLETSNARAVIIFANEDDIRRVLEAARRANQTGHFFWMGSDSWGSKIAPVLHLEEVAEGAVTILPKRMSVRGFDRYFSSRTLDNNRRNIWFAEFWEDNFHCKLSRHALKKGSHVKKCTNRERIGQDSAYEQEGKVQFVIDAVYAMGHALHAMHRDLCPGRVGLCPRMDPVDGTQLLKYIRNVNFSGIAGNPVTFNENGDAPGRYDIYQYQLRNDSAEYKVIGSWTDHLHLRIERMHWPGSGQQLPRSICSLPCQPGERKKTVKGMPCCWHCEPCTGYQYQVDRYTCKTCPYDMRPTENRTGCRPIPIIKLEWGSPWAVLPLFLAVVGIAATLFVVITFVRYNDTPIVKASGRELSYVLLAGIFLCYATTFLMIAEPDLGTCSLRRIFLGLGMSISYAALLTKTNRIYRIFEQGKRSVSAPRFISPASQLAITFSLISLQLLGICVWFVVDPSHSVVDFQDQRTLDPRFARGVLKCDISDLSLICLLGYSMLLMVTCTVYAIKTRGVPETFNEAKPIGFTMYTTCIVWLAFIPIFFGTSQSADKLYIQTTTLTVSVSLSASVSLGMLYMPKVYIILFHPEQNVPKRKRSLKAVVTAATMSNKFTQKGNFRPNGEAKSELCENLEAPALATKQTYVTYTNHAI

Cc1ccnc(Nc2nc(-c3c[nH]nc3-c3cccc(N(C)C)c3)cs2)n1 [Compound 1-30, 4-(3-(3-(Dimethylamino)phenyl)-1H-pyrazol-4-yl)-N-(4-methylpyrimidin-2-yl)thiazol-2-amine]
EC50 [1]: 1000 to 10000 nM | melting point: 239 to 241 °C

Cc1ccnc(Nc2nc(-c3c[nH]nc3C(O)c3ccccc3)cs2)n1 (centres unmarked) [Compound 1-26, (4-(2-(4-Methylpyrimidin-2-ylamino)thiazol-4-yl)-1H-pyrazol-3-yl)(phenyl)methanol]
EC50 [1]: 1000 to 10000 nM | melting point: 249.5 °C

Cc1ccnc(Nc2nc(-c3cn[nH]c3C(=O)C3CC3)cs2)n1 [Compound 1-27, Cyclopropyl(4-(2-(4-methylpyrimidin-2-ylamino)thiazol-4-yl)-1H-pyrazol-5-yl)methanone]
EC50 [1]: 100 to 1000 nM | melting point: 239 to 240 °C

CC(=O)c1sc(Nc2nccc(C)n2)nc1-c1cn[nH]c1 [Compound 1-46, 1-(2-(4-Methylpyrimidin-2-ylamino)-4-(1H-pyrazol-4-yl)thiazol-5-yl)ethanone]
EC50 [1]: 100 to 1000 nM | melting point: 288 to 291 °C

Cc1ccnc(Nc2nc(-c3c[nH]nc3C(=O)c3ccccc3)cs2)n1 [Compound 1-25, (4-(2-(4-Methylpyrimidin-2-ylamino)thiazol-4-yl)-1H-pyrazol-3-yl)(phenyl)methanone]
melting point: 254 to 255 °C

COC(C)c1[nH]ncc1-c1csc(Nc2nccc(C)n2)n1 (centres unmarked) [Compound 1-29, 4-(5-(1-Methoxyethyl)-1H-pyrazol-4-yl)-N-(4-methylpyrimidin-2-yl)thiazol-2-amine]
EC50 [1]: 100 to 1000 nM

COc1ccc(F)cc1-c1n[nH]cc1-c1csc(Nc2nccc(C)n2)n1 [Compound 1-5, 4-(3-(5-Fluoro-2-methoxyphenyl)-1H-pyrazol-4-yl)-N-(4-methylpyrimidin-2-yl)thiazol-2-amine]
EC50 [1]: 100 to 1000 nM | melting point: 247 °C

Cc1ccnc(Nc2nc(-c3c[nH]nc3-c3ccncc3)cs2)n1 [Compound 1-18, N-(4-Methylpyrimidin-2-yl)-4-(3-(pyridin-4-yl)-1H-pyrazol-4-yl)thiazol-2-amine]
EC50 [1]: 1000 to 10000 nM

Cc1ccnc(Nc2nc(-c3c[nH]nc3-c3ccccc3F)cs2)n1 [Compound 1-3, 4-(3-(2-Fluorophenyl)-1H-pyrazol-4-yl)-N-(4-methylpyrimidin-2-yl)thiazol-2-amine]
EC50 [1]: < 100 nM

Cc1ccnc(Nc2nc(-c3c[nH]nc3-c3ccc(C(O)C(F)(F)F)cc3)cs2)n1 (centres unmarked) [Compound 1-6, 2,2,2-Trifluoro-1-(4-(4-(2-(4-methylpyrimidin-2-ylamino)thiazol-4-yl)-1H-pyrazol-3-yl)phenyl)ethanol]
EC50 [1]: 1000 to 10000 nM

Cc1ccnc(Nc2nc(-c3c[nH]nc3-c3ccc(F)cc3F)cs2)n1 [Compound 1-24, 4-(3-(2,4-Difluorophenyl)-1H-pyrazol-4-yl)-N-(4-methylpyrimidin-2-yl)thiazol-2-amine]
EC50 [1]: 1000 to 10000 nM

N#Cc1sc(Nc2nccnn2)nc1-c1cn[nH]c1 [Compound 1-45, 2-(1,2,4-Triazin-3-ylamino)-4-(1H-pyrazol-4-yl)thiazole-5-carbonitrile]
EC50 [1]: 100 to 1000 nM

Cc1ccnc(Nc2nc(-c3c[nH]nc3-c3cccc(CN4CCOCC4)c3)cs2)n1 [Compound 1-9, N-(4-Methylpyrimidin-2-yl)-4-(3-(3-(morpholinomethyl)phenyl)-1H-pyrazol-4-yl)thiazol-2-amine]
EC50 [1]: 1000 to 10000 nM

CCOc1ccccc1-c1n[nH]cc1-c1csc(Nc2nccc(C)n2)n1 [Compound 1-23, 4-(3-(2-Ethoxyphenyl)-1H-pyrazol-4-yl)-N-(4-methylpyrimidin-2-yl)thiazol-2-amine]
EC50 [1]: 1000 to 10000 nM

3-(3-(2-(Pyrimidin-2-ylamino)thiazol-4-yl)-1H-pyrazol-4-yl)benzonitrile [Compound 1-43]
EC50 [1]: < 100 nM
